Measured values from ChEMBL document CHEMBL1201861, “Genomics of Drug Sensitity in Cancer screening data, Wellcome Trust Sanger Institute”.
pIC50: −log10 of the molar value.

Assays:
Assay in all cases: cells
Details in all cases: Homo sapiens
Ca-Ski = format: functional, cell-based;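 further: cell viability assay measuring inhibition of Ca-Ski cell growth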
Description: SANGER: Inhibition of human Ca-Ski cell growth in a cell viability assay.

Ca9-22 = format: functional, cell-based;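 further: growth inhibition of Ca9-22 cells, read out with a cell viability assay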
Description: SANGER: Inhibition of human Ca9-22 cell growth in a cell viability assay.

EFO-21 = format: functional, cell-based;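 further: growth inhibition of EFO-21 cells measured with a viability assay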
Description: SANGER: Inhibition of human EFO-21 cell growth in a cell viability assay.

GAMG = format: functional, cell-based;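 further: cell growth inhibition measured by a viability assay in the GAMG human cell line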
Description: SANGER: Inhibition of human GAMG cell growth in a cell viability assay.

GCT = format: functional, cell-based;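 further: GCT cell line proliferation inhibition, read out with a cell viability assay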
Description: SANGER: Inhibition of human GCT cell growth in a cell viability assay.

GMS-10 = format: functional, cell-based;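 further: growth inhibition of GMS-10 cells, read out as cell viability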
Description: SANGER: Inhibition of human GMS-10 cell growth in a cell viability assay.

HCC1806 = format: functional, cell-based;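 further: growth inhibition of the cancer cell line, determined with a cell viability assay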
Description: SANGER: Inhibition of human HCC1806 cell growth in a cell viability assay.

HCC1954 = format: functional, cell-based;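 further: growth inhibition of human HCC1954 cells, read out with a cell viability assay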
Description: SANGER: Inhibition of human HCC1954 cell growth in a cell viability assay.

HGC-27 = format: functional, cell-based;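 further: growth inhibition of human HGC-27 cells, read out in a cell viability assay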
Description: SANGER: Inhibition of human HGC-27 cell growth in a cell viability assay.

HT-29 = format: functional, cell-based;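 further: growth inhibition of human HT-29 cells, read out by a cell viability assay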
Description: SANGER: Inhibition of human HT-29 cell growth in a cell viability assay.

HTC-C3 = format: functional, cell-based;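 further: inhibition of cell growth, read out with a cell viability assay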
Description: SANGER: Inhibition of human HTC-C3 cell growth in a cell viability assay.

Huh-7 = format: functional, cell-based;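 further: HuH-7 cell growth inhibition, read out with a cell viability assay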
Description: SANGER: Inhibition of human HuH-7 cell growth in a cell viability assay.

HuO-3N1 = format: functional, cell-based;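 further: cell viability readout used to measure how strongly compounds suppress proliferation of human HuO-3N1 cells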
Description: SANGER: Inhibition of human HuO-3N1 cell growth in a cell viability assay.

HuP-T3 = format: functional, cell-based;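 further: HuP-T3 cell growth inhibition, read out with a cell viability assay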
Description: SANGER: Inhibition of human HuP-T3 cell growth in a cell viability assay.

J82 = format: functional, cell-based;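 further: growth inhibition of J82 cells, read out with a cell viability assay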
Description: SANGER: Inhibition of human J82 cell growth in a cell viability assay.

JEG-3 = format: functional, cell-based;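 further: growth inhibition of human JEG-3 cells, read out with a cell viability assay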
Description: SANGER: Inhibition of human JEG-3 cell growth in a cell viability assay.

KYSE-410 = format: functional, cell-based;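 further: growth inhibition of KYSE-410 cells, measured through a cell viability readout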
Description: SANGER: Inhibition of human KYSE-410 cell growth in a cell viability assay.

KYSE-450 = format: functional, cell-based;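 further: cell growth inhibition measured by a viability assay in human KYSE-450 cells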
Description: SANGER: Inhibition of human KYSE-450 cell growth in a cell viability assay.

KYSE-510 = format: functional, cell-based;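 further: cell viability readout used to measure how strongly growth of the cell line is suppressed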
Description: SANGER: Inhibition of human KYSE-510 cell growth in a cell viability assay.

LK-2 = format: functional, cell-based;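 further: growth inhibition of LK-2 cells, read out with a viability assay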
Description: SANGER: Inhibition of human LK-2 cell growth in a cell viability assay.

MKN-1 = format: functional, cell-based;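 further: growth inhibition of human MKN1 cells, read out by a cell viability measurement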
Description: SANGER: Inhibition of human MKN1 cell growth in a cell viability assay.

NB17 = format: functional, cell-based;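 further: growth inhibition of NB17 cells, read out with a cell viability assay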
Description: SANGER: Inhibition of human NB17 cell growth in a cell viability assay.

NCI-H1792 = format: functional, cell-based;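 further: growth inhibition of human NCI-H1792 cells, read out as cell viability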
Description: SANGER: Inhibition of human NCI-H1792 cell growth in a cell viability assay.

NCI-H2405 = format: functional, cell-based;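 further: growth inhibition of the human cell line, read out with a cell viability assay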
Description: SANGER: Inhibition of human NCI-H2405 cell growth in a cell viability assay.

NCI-H292 = format: functional, cell-based;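 further: growth inhibition of NCI-H292 cells, read out with a cell viability assay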
Description: SANGER: Inhibition of human NCI-H292 cell growth in a cell viability assay.

NCI-H727 = format: functional, cell-based;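 further: growth inhibition of human NCI-H727 cells, read out with a cell viability assay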
Description: SANGER: Inhibition of human NCI-H727 cell growth in a cell viability assay.

NCI-N87 = format: functional, cell-based;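 further: growth inhibition of human NCI-N87 cells, read out with a cell viability assay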
Description: SANGER: Inhibition of human NCI-N87 cell growth in a cell viability assay.

OE19 = format: functional, cell-based;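 further: growth inhibition of OE19 cells, measured through a cell viability read-out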
Description: SANGER: Inhibition of human OE19 cell growth in a cell viability assay.

PA-1 = format: functional, cell-based;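 further: IC50 for suppression of PA-1 cell proliferation, determined with a cell viability read-out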
Description: SANGER: Inhibition of human PA-1 cell growth in a cell viability assay.

RCM-1 = format: functional, cell-based;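 further: growth inhibition of the RCM-1 line, determined with a cell viability readout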
Description: SANGER: Inhibition of human RCM-1 cell growth in a cell viability assay.

RD = format: functional, cell-based
Description: SANGER: Inhibition of human RD cell growth in a cell viability assay.

RPMI-7951 = format: functional, cell-based
Description: SANGER: Inhibition of human RPMI-7951 cell growth in a cell viability assay.

SAS = format: functional, cell-based;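 further: growth inhibition of SAS cells, read out with a cell viability assay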
Description: SANGER: Inhibition of human SAS cell growth in a cell viability assay.

SCC-25 = format: functional, cell-based;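 further: growth inhibition of SCC-25 cells, measured with a cell viability assay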
Description: SANGER: Inhibition of human SCC-25 cell growth in a cell viability assay.

SK-HEP1 = format: functional, cell-based, SK-HEP-1;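 further: cell viability readout used to quantify reduction in proliferation of human SK-HEP-1 cells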
Description: SANGER: Inhibition of human SK-HEP-1 cell growth in a cell viability assay.

SK-MEL3 = format: functional, cell-based, SK-MEL-3;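 further: growth inhibition of human SK-MEL-3 cells, read out with a cell viability assay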
Description: SANGER: Inhibition of human SK-MEL-3 cell growth in a cell viability assay.

SNU-449 = format: functional, cell-based
Description: SANGER: Inhibition of human SNU-449 cell growth in a cell viability assay.

SW1417 = format: functional, cell-based;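 further: growth inhibition of human SW1417 cells, read out with a cell viability assay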
Description: SANGER: Inhibition of human SW1417 cell growth in a cell viability assay.

SW1710 = format: functional, cell-based;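 further: growth inhibition of SW1710 cells, determined with a cell viability assay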
Description: SANGER: Inhibition of human SW1710 cell growth in a cell viability assay.

ABC-1 = format: functional, cell-based;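 further: growth inhibition of human ABC-1 cells, read out by a cell viability assay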
Description: SANGER: Inhibition of human ABC-1 cell growth in a cell viability assay.

BPH-1 = format: functional, cell-based;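 further: cell viability assay measuring growth inhibition of human BPH-1 cells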
Description: SANGER: Inhibition of human BPH-1 cell growth in a cell viability assay.

C-33-A = format: functional, cell-based;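 further: cell viability assay measuring growth inhibition of C-33-A cells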
Description: SANGER: Inhibition of human C-33-A cell growth in a cell viability assay.

CAL-120 = format: functional, cell-based;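 further: cell growth inhibition, read out as cell viability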
Description: SANGER: Inhibition of human CAL-120 cell growth in a cell viability assay.

CAL-39 = format: functional, cell-based;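 further: cell viability assay measuring growth inhibition of CAL-39 cells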
Description: SANGER: Inhibition of human CAL-39 cell growth in a cell viability assay.

CAL-72 = format: functional, cell-based;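 further: cell viability assay measuring inhibition of proliferation in the CAL-72 cell line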
Description: SANGER: Inhibition of human CAL-72 cell growth in a cell viability assay.

TGW = format: functional, cell-based;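 further: growth inhibition of human TGW cells, read out with a cell viability assay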
Description: SANGER: Inhibition of human TGW cell growth in a cell viability assay.

U2OS = format: functional, cell-based, U-2-OS;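 further: growth inhibition of human U-2-OS cells, determined with a cell viability assay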
Description: SANGER: Inhibition of human U-2-OS cell growth in a cell viability assay.

U-251 = format: functional, cell-based;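 further: growth inhibition of human U-251 cells, read out through a cell viability assay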
Description: SANGER: Inhibition of human U251 cell growth in a cell viability assay.

UMUC3 = format: functional, cell-based;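 further: growth inhibition of human UM-UC-3 cells, read out with a cell viability assay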
Description: SANGER: Inhibition of human UM-UC-3 cell growth in a cell viability assay.

YKG-1 = format: functional, cell-based;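 further: cell growth inhibition, read out with a viability assay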
Description: SANGER: Inhibition of human YKG-1 cell growth in a cell viability assay.

COLO-678 = format: functional, cell-based
Description: SANGER: Inhibition of human COLO-678 cell growth in a cell viability assay.

O=c1cc(N2CCOCC2)oc2c(-c3cccc4c3sc3ccccc34)cccc12
pIC50 (Ca-Ski): < 5.70 | pIC50 (Ca9-22): < 5.70 | pIC50 (EFO-21): < 5.70 | pIC50 (GAMG): < 5.70 | pIC50 (GCT): < 5.70 | pIC50 (GMS-10): < 5.70 | pIC50 (HCC1806): < 5.70 | pIC50 (HCC1954): < 5.70 | pIC50 (HGC-27): < 5.70 | pIC50 (HT-29): < 5.70 | pIC50 (HTC-C3): < 5.70 | pIC50 (Huh-7): < 5.70 | pIC50 (HuO-3N1): 6.33 | pIC50 (HuP-T3): < 5.70 | pIC50 (J82): < 5.70 | pIC50 (JEG-3): < 5.70 | pIC50 (KYSE-410): < 5.70 | pIC50 (KYSE-450): < 5.70 | pIC50 (KYSE-510): < 5.70 | pIC50 (LK-2): < 5.70 | pIC50 (MKN-1): < 5.70 | pIC50 (NB17): < 5.70 | pIC50 (NCI-H1792): < 5.70 | pIC50 (NCI-H2405): < 5.70 | pIC50 (NCI-H292): 5.76 | pIC50 (NCI-H727): < 5.70 | pIC50 (NCI-N87): < 5.70 | pIC50 (OE19): < 5.70 | pIC50 (PA-1): 5.80 | pIC50 (RCM-1): < 5.70 | pIC50 (RD): < 5.70 | pIC50 (RPMI-7951): < 5.70 | pIC50 (SAS): < 5.70 | pIC50 (SCC-25): < 5.70 | pIC50 (SK-HEP1): < 5.70 | pIC50 (SK-MEL3): < 5.70 | pIC50 (SNU-449): < 5.70 | pIC50 (SW1417): < 5.70 | pIC50 (SW1710): < 5.70 | pIC50 (ABC-1): < 5.70 | pIC50 (BPH-1): < 5.70 | pIC50 (C-33-A): < 5.70 | pIC50 (CAL-120): < 5.70 | pIC50 (CAL-39): < 5.70 | pIC50 (CAL-72): < 5.70 | pIC50 (TGW): < 5.70 | pIC50 (U2OS): < 5.70 | pIC50 (U-251): < 5.70 | pIC50 (UMUC3): < 5.70 | pIC50 (YKG-1): < 5.70 | pIC50 (COLO-678): < 5.70

Cn1c(=O)n(-c2ccc(C(C)(C)C#N)cc2)c2c3cc(-c4cnc5ccccc5c4)ccc3ncc21 [DACTOLISIB]
pIC50 (Ca-Ski): 6.81 | pIC50 (Ca9-22): 7.47 | pIC50 (EFO-21): 6.54 | pIC50 (GAMG): 7.71 | pIC50 (GCT): 7.86 | pIC50 (GMS-10): 6.76 | pIC50 (HCC1806): 6.78 | pIC50 (HCC1954): 6.29 | pIC50 (HGC-27): 7.74 | pIC50 (HT-29): < 5.70 | pIC50 (HTC-C3): 6.93 | pIC50 (Huh-7): 7.74 | pIC50 (HuO-3N1): 7.17 | pIC50 (HuP-T3): 5.95 | pIC50 (J82): 6.73 | pIC50 (JEG-3): 7.08 | pIC50 (KYSE-410): 7.23 | pIC50 (KYSE-450): 7.26 | pIC50 (KYSE-510): 7.18 | pIC50 (LK-2): 7.11 | pIC50 (MKN-1): 8.55 | pIC50 (NB17): 6.14 | pIC50 (NCI-H1792): 7.18 | pIC50 (NCI-H2405): 7.26 | pIC50 (NCI-H292): 7.57 | pIC50 (NCI-H727): 6.38 | pIC50 (NCI-N87): 6.95 | pIC50 (OE19): 6.47 | pIC50 (PA-1): 7.93 | pIC50 (RCM-1): 6.30 | pIC50 (RD): 7.12 | pIC50 (RPMI-7951): 7.71 | pIC50 (SAS): 6.19 | pIC50 (SCC-25): 7.05 | pIC50 (SK-HEP1): 7.34 | pIC50 (SK-MEL3): 6.83 | pIC50 (SNU-449): 7.12 | pIC50 (SW1417): < 5.70 | pIC50 (SW1710): 7.73 | pIC50 (ABC-1): 6.38 | pIC50 (BPH-1): 8.32 | pIC50 (C-33-A): 6.87 | pIC50 (CAL-120): 7.46 | pIC50 (CAL-39): 7.42 | pIC50 (CAL-72): 6.53 | pIC50 (TGW): 6.12 | pIC50 (U2OS): 7.53 | pIC50 (U-251): 7.42 | pIC50 (UMUC3): > 8.11 | pIC50 (YKG-1): 7.28 | pIC50 (COLO-678): < 5.70
